The record followed here is patent US20210269434A1, “TRICYCLIC COMPOUNDS AS INHIBITORS OF KRAS” (Incyte Corporation, priority 2020, published 2021).

For one test, the target named is KRAS G12C (Homo sapiens, UniProt P01116, G12C). In words: GDP-GTP exchange assay (KRAS_G12C exchange). In kind it is biochemical. To be noted: bodipy-GDP loaded KRAS G12C 2.5 nM, SOS1 150 nM, GppNHp; 2 hours pre-incubation, 2 hours reaction; read-out: G12C_exchange. A digest of the protocol: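 Fluorescence exchange of bodipy-GDP for GppNHp, SOS1-driven, read at 485/520 nm; IC50 from four-parameter variable-slope fit. Both mutants used 2.5 nM final labelled protein and a 2 h compound pre-incubation. G12C reaction had 500 uM GppNHp and 150 nM SOS1 for 2 h; G12D ran 4 h.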
Sequence of KRAS G12C (P01116 1-188 isoform P01116-2 G12C): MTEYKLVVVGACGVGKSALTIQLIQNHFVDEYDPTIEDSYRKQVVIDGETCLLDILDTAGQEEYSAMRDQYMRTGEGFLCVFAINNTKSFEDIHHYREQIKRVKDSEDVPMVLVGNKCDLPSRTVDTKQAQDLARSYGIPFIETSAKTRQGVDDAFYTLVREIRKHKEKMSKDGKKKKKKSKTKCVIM

In test [1] the test system is MIA PaCa-2 (KRAS G12C) cells. In words: Cellular pERK HTRF assay (KRAS_G12C pERK). The format is cell-based, human. To be noted: Homo sapiens, MIA PaCa-2, 4 hours incubation, read-out: G12C_pERK. A digest of the protocol:
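MIA PaCa-2 cells plated overnight, then exposed to compound for 4 h at 37 °C (G12C compounds). Phospho-ERK1/2 measured in lysates by HTRF (665/620 nm) after overnight antibody incubation; IC50 from percent inhibition versus log concentration.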
(TR-FRET usually uses a lanthanide donor and a delayed reading to cut background.)

As to `CC#CC(=O)N1CC[C@H](n2nnc3c(N4CC(C)(N(C)C)C4)nc4c(F)c(-c5cccc(C)c5C)c(C)cc4c32)C[C@H]1CC#N` [Example 226, 2-((2S,4S)-1-(but-2-ynoyl)-4-(4-(3-(dimethylamino)-3-methylazetidin-1-yl)-7-(2,3-dimethylphenyl)-6-fluoro-8-methyl-1H-[1,2,3]triazolo[4,5-c]quinolin-1-yl)piperidin-2-yl)acetonitrile], the IC50 (at KRAS G12C; in test [1]) was at most 100 nM each time.
With `C=CC(=O)N1CC[C@H](n2cnc3c(N4CC(N(C)C)C4)nc4cc(-c5cccc(Cl)c5C)c(Cl)cc4c32)C[C@H]1CC#N` [Example 171, 2-((2S,4S)-1-acryloyl-4-(8-chloro-7-(3-chloro-2-methylphenyl)-4-(3-(dimethylamino)azetidin-1-yl)-1H-imidazo[4,5-c]quinolin-1-yl)piperidin-2-yl)acetonitrile], the IC50 (at KRAS G12C; in test [1]) was at most 100 nM each time.
Turning to `C[C@@H](CN(C)C)Oc1nc2c(F)c(-c3ccc(F)cc3)c(Cl)cc2c2c1nnn2[C@H]1CCN(C(=O)/C=C/CF)[C@H](CC#N)C1` [Example 130, 2-((2S,4S)-4-(8-chloro-4-(((S)-1-(dimethylamino)propan-2-yl)oxy)-6-fluoro-7-(4-fluorophenyl)-1H-[1,2,3]triazolo[4,5-c]quinolin-1-yl)-1-((E)-4-fluorobut-2-enoyl)piperidin-2-yl)acetonitrile], the IC50 (on KRAS G12C; in test [1]) was at most 100 nM throughout.
For the compound `C=CC(=O)N1CC[C@H](n2nnc3c(N4CC(C)(N(C)C)C4)nc4c(F)c(-c5c(C)ccc6[nH]ncc56)c(C)cc4c32)C[C@H]1CC#N` (single isomer, unassigned) [Example 200a], the IC50 (on KRAS G12C; in test [1]) was at most 100 nM each time.
With `CC#CC(=O)N1CC[C@H](n2nnc3c(OC[C@@H]4CCCN4C)nc4c(F)c(-c5cccc(Cl)c5C)c(CCC#N)cc4c32)C[C@H]1CC#N` [Example 241a, 3-(1-((2S,4S)-1-(but-2-ynoyl)-2-(cyanomethyl)-piperidin-4-yl)-7-(3-chloro-2-methylphenyl)-6-fluoro-4-(((S)-1-methylpyrrolidin-2-yl)methoxy)-1H-[1,2,3]triazolo[4,5-c]quinolin-8-yl)propanenitrile], the IC50 (at KRAS G12C; in test [1]) was at most 100 nM each time.
In the case of `CC#CC(=O)N1CC[C@H](n2nnc3c(N4CC(C)(N(C)C)C4)nc4c(F)c(-c5cccc(C)c5Cl)c(C(F)(F)F)cc4c32)C[C@H]1CC#N` [Example 236, 2-((2S,4S)-1-(but-2-ynoyl)-4-(7-(2-chloro-3-methylphenyl)-4-(3-(dimethylamino)-3-methylazetidin-1-yl)-6-fluoro-8-(trifluoromethyl)-1H-[1,2,3]triazolo[4,5-c]quinolin-1-yl)piperidin-2-yl)acetonitrile], the IC50 (at KRAS G12C; in test [1]) was at most 100 nM in each case.
In the case of `Cc1cc2c(nc(N3CC(C)(N(C)C)C3)c3nnn([C@H]4CCN(C(=O)/C=C/CF)[C@H](CC#N)C4)c32)c(F)c1-c1cccc(Cl)c1C` [Example 104, 2-((2S,4S)-4-(7-(3-chloro-2-methylphenyl)-4-(3-(dimethylamino)-3-methyl-azetidin-1-yl)-6-fluoro-8-methyl-1H-[1,2,3]triazolo[4,5-c]quinolin-1-yl)-1-((E)-4-fluorobut-2-enoyl)piperidin-2-yl)acetonitrile], the IC50 (on KRAS G12C; in test [1]) was at most 100 nM throughout.
`C=CC(=O)N1CC[C@H](n2cnc3c(N4CC(N(C)C)C4)nc4c(F)c(-c5cncc(Cl)c5C)c(Cl)cc4c32)C[C@H]1CC#N` [Example 89, 2-((2S,4S)-1-acryloyl-4-(8-chloro-7-(5-chloro-4-methylpyridin-3-yl)-4-(3-(dimethylamino)azetidin-1-yl)-6-fluoro-1H-imidazo[4,5-c]quinolin-1-yl)piperidin-2-yl)acetonitrile]: the IC50 (at KRAS G12C; in test [1]) was at most 100 nM each time.
In the case of `C=CC(=O)N1CC[C@H](n2nnc3c(-c4cccnc4C)nc4c(F)c(-c5cccc(Cl)c5C)c(Cl)cc4c32)C[C@H]1CC#N` [Example 174, 2-((2S,4S)-1-acryloyl-4-(8-chloro-7-(3-chloro-2-methylphenyl)-6-fluoro-4-(2-methylpyridin-3-yl)-1H-[1,2,3]triazolo[4,5-c]quinolin-1-yl)piperidin-2-yl)acetonitrile], the IC50 (on KRAS G12C; in test [1]) was at most 100 nM throughout.
Turning to `Cc1cc2c(nc(O[C@@H](C)CN(C)C)c3nnn([C@H]4CCN(C(=O)/C=C/CF)[C@H](CC#N)C4)c32)c(F)c1-c1ccc(F)cc1` [Example 134, 2-((2S,4S)-4-(4-(((S)-1-(dimethylamino)propan-2-yl)oxy)-6-fluoro-7-(4-fluorophenyl)-8-methyl-1H-[1,2,3]triazolo[4,5-c]quinolin-1-yl)-1-((E)-4-fluorobut-2-enoyl)piperidin-2-yl)acetonitrile], the IC50 (on KRAS G12C; in test [1]) was at most 100 nM in each case.
In the case of `C=CC(=O)N1CC[C@H](n2nnc3c(N4CC(C)(N(C)C)C4)nc4c(F)c(-c5ccc(F)cc5)c(C)cc4c32)C[C@H]1CC#N` [Example 127, 2-((2S,4S)-1-acryloyl-4-(4-(3-(dimethylamino)-3-methylazetidin-1-yl)-6-fluoro-7-(4-fluorophenyl)-8-methyl-1H-[1,2,3]triazolo[4,5-c]quinolin-1-yl)piperidin-2-yl)acetonitrile], the IC50 (on KRAS G12C; in test [1]) was at most 100 nM each time.
For the compound `Cc1cccc(-c2c(C)cc3c(nc(N4CC(N(C)C)C4)c4nnn([C@H]5CCN(C(=O)/C=C/CN(C)C)[C@H](CC#N)C5)c43)c2F)c1Cl` [Example 249, 2-((2S,4S)-4-(7-(2-chloro-3-methylphenyl)-4-(3-(dimethylamino)azetidin-1-yl)-6-fluoro-8-methyl-1H-[1,2,3]triazolo[4,5-c]quinolin-1-yl)-1-((E)-4-(dimethylamino)but-2-enoyl)piperidin-2-yl)acetonitrile], the IC50 (on KRAS G12C; in test [1]) was at most 100 nM throughout.
In the case of `C=CC(=O)N1CC[C@H](n2nnc3c(OC[C@@H]4CCCN4C)nc4c(F)c(-c5ccc(F)cc5)c(C)cc4c32)C[C@H]1CC#N` [Example 135, 2-((2S,4S)-1-acryloyl-4-(6-fluoro-7-(4-fluorophenyl)-8-methyl-4-(((S)-1-methylpyrrolidin-2-yl)methoxy)-1H-[1,2,3]triazolo[4,5-c]quinolin-1-yl)piperidin-2-yl)acetonitrile], the IC50 (on KRAS G12C; in test [1]) was at most 100 nM in each case.
As for `Cc1c(Cl)cc2[nH]ncc2c1-c1c(Cl)cc2c(nc(OC[C@@H]3CCCN3C)c3ncn([C@H]4CCN(C(=O)/C=C/CN(C)C)[C@H](CC#N)C4)c32)c1F` [Example 181a, 2-((2S,4S)-4-(8-chloro-7-(6-chloro-5-methyl-1H-indazol-4-yl)-6-fluoro-4-(((S)-1-methylpyrrolidin-2-yl)-methoxy)-1H-imidazo[4,5-c]quinolin-1-yl)-1-((E)-4-(dimethylamino)but-2-enoyl)piperidin-2-yl)acetonitrile], the IC50 (at KRAS G12C; in test [1]) was at most 100 nM in each case.
With `C=CC(=O)N1CC[C@H](n2cnc3c(N4CC(N(C)C)C4)nc4c(F)c(-c5ccccc5F)c(Cl)cc4c32)C[C@H]1CC#N` [Example 56, 2-((2S,4S)-1-acryloyl-4-(8-chloro-4-(3-(dimethylamino)azetidin-1-yl)-6-fluoro-7-(2-fluorophenyl)-1H-imidazo[4,5-c]quinolin-1-yl)piperidin-2-yl)acetonitrile], the IC50 (at KRAS G12C; in test [1]) was at most 100 nM in each case.
In the case of `C=CC(=O)N1CC[C@H](n2cnc3c(N4CC(N(C)C)C4)nc4c(F)c(-c5cccc6cccnc56)c(Cl)cc4c32)C[C@H]1CC#N` (single isomer, unassigned) [Example 72a], the IC50 (on KRAS G12C; in test [1]) was at most 100 nM throughout.
With `CC#CC(=O)N1CC[C@H](n2nnc3c(N4CC(N(C)C)C4)nc4c(Cl)c(-c5ccc(F)c6cccnc56)c(Cl)cc4c32)C[C@H]1CC#N` [Example 274a, 2-((2S,4S)-1-(but-2-ynoyl)-4-(6,8-dichloro-4-(3-(dimethylamino)azetidin-1-yl)-7-(5-fluoroquinolin-8-yl)-1H-[1,2,3]triazolo[4,5-c]quinolin-1-yl)piperidin-2-yl)acetonitrile], the IC50 (at KRAS G12C; in test [1]) was at most 100 nM in each case.
Take `COC/C=C/C(=O)N1CC[C@H](n2nnc3c(N4CC(N(C)C)C4)nc4c(F)c(-c5c(C)c(Cl)cc6[nH]ncc56)c(Cl)cc4c32)C[C@H]1CC#N` [Example 186a, 2-((2S,4S)-4-(8-chloro-7-(6-chloro-5-methyl-1H-indazol-4-yl)-4-(3-(dimethylamino)azetidin-1-yl)-6-fluoro-1H-[1,2,3]triazolo[4,5-c]quinolin-1-yl)-1-((E)-4-methoxybut-2-enoyl)piperidin-2-yl)acetonitrile]: the IC50 (on KRAS G12C; in test [1]) was at most 100 nM in each case.
Turning to `C=CC(=O)N1CC[C@H](n2nnc3c(N4CC(C)(N(C)C)C4)nc4c(F)c(-c5ccc(F)cc5)c(Cl)cc4c32)C[C@H]1CC#N` [Example 126, 2-((2S,4S)-1-acryloyl-4-(8-chloro-4-(3-(dimethylamino)-3-methylazetidin-1-yl)-6-fluoro-7-(4-fluorophenyl)-1H-[1,2,3]triazolo[4,5-c]quinolin-1-yl)piperidin-2-yl)acetonitrile], the IC50 (at KRAS G12C; in test [1]) was at most 100 nM in each case.
